Experimental data published in US20260364024A1, “A SCALABLE AND CONTINUOUS METHOD TO PREPARE SOLID DRUG NANOPARTICLES FOR OCULAR DISEASE THERAPY” (The Curators of the University of Missouri, priority 2023, published 2026).
Structures can show the parent of a compound that is named as a salt.

Tests used:
[1] = In vitro drug release by dialysis in PBS; assay type: physicochemical; conditions: from BT/BH solution; within 4 h, PBS pH 7.4, 37 °C, sink condition
Description: The tube was then immersed in 5 mL of PBS, and the set was incubated at 37 °C with shaking (100 rpm). At predetermined intervals, 100 μL of the release medium (PBS) was withdrawn and replaced with equal volume of fresh medium. […] These experiments were carried out in triplicate.
Because the BM/BX SDNs are composed of hydrophobic drugs, the release was expected to slow down in comparison to their hydrophilic counterparts BT and BH.

[2] = Ex vivo cornea permeation (Franz diffusion cell); assay type: in vitro ADME; conditions: from BT/BH solution, within 4 h, 37 °C, rabbit cornea
Description: After using dextran to confirm the intactness of cornea extracted from fresh rabbit eyes, that cornea was mounted between the donor chamber and receptor chamber of a Franz diffusion cell system. […] The set was incubated at 37 °C. At predetermined intervals up to 12 h, an aliquot of 100 μL was withdrawn from the receptor chamber and analyzed by LC-MS. An equal volume of fresh PBS was supplemented to the receptor chamber following each sampling. FITC-labeled Dextran was tested to confirm the intactness of the cornea, and the permeation of the FITC-labeled Dextran was quantified by measuring the fluorescence intensity of FITC (Emission: 525 nm, Excitation: 490 nm) using a microplate reader.

[3] = eye drops, salt form; background statement; cited from earlier work

| Compound | BH released [1] [%] | hydrophilic counterpart penetrated across the cornea [2] | bioavailability [3] | BT released [1] |
| --- | --- | --- | --- | --- |
| CC(C)NCC(O)COc1ccc(CCOCC2CC2)cc1 (stereo not drawn) [BH, betaxolol hydrochloride] | > 70 | less than 10% | less than 5% |  |
| Brc1c(NC2=NCCN2)ccc2nccnc12.O=C(O)C(O)C(O)C(=O)O [BT, brimonidine tartrate] |  | less than 10% | less than 5% | more than 60% |
